Experimental data taken from US20250099466A1 (BRISTOL-MYERS SQUIBB COMPANY, priority 2021, published 2025).
Entries after “also recorded” stand apart in the source; their conditions may differ.

What was measured:
aPTT, TT, and PT = experiment: Ex vivo aPTT, TT and PT in ECAT rabbits; parameters: species or system rabbit
Procedure: (§1) Integrated blood flow, thrombus weight, aPTT (activated partial thromboplastin time), TT (thrombin time), and PT (prothrombin time) were also measured.

[1] = tested on: electrically induced carotid artery thrombus (ECAT) in rabbits; experiment: Treatment rabbit ECAT model (dosing 15 minutes after vessel injury); assay type: in vivo; settings: for carotid blood flow at 90 minutes (% of control carotid blood flow): n=6; for reduction in thrombus weight: treatment ECAT
Procedure: The rabbit ECAT model as described by Wong et al., Nonpeptide factor Xa inhibitors: II.
Male New Zealand white rabbits were anesthetized with ketamine (50 mg/kg+50 mg/kg/h intramuscularly) and xylazine (10 mg/kg+10 mg/kg/h intramuscularly). Thrombosis was induced by electrical stimulation of the control carotid artery for 3 minutes at 4 mA using an external stainless-steel bipolar electrode. Carotid blood flow was measured with an electromagnetic flow probe continuously over a 90-minute period to monitor thrombosis induced occlusion. Integrated carotid blood flow was measured by the area under the flowtime curve (see Wong et al.). In addition, thrombus from the injured artery was removed, blotted twice on a weighing paper to remove residual fluid, and weighed.
To achieve a stable plasma level with minimum experimental variability, compounds were administered by IV infusion. […] The IV infusion was continued throughout the experiment for both models.
as §1

[2] = tested on: subjects undergoing elective total knee replacement surgery; experiment: Phase 2 study after elective total knee replacement: bleeding events (safety); assay type: in vivo, human; settings: safety set, on-treatment
Source text: The principal safety outcome was any bleeding, which was defined as the composite of major, clinically relevant nonmajor, and minimal bleeding. Secondary safety outcomes were: (a) major bleeding, (b) clinically relevant nonmajor bleeding, (c) clinically relevant bleeding, defined as the composite of major and clinically relevant nonmajor bleeding, and (d) minimal bleeding. Bleeding was classified as major if it was overt and associated with a decrease in hemoglobin of 2 g/dL or more or necessitated transfusion of 2 or more units of blood with a temporal association within 24 to 48 hours of the bleed; or if it occurred in a critical area or organ or contributed to death. […] Overt bleeding not meeting the criteria for major bleeding, but that necessitated medical examination or intervention or had clinical consequences, was classified as clinically relevant nonmajor bleeding. Bleeding not meeting the criteria for major or clinically relevant nonmajor bleeding was classified as minimal bleeding (Schulman et al., Definition of major bleeding in clinical investigations of antihemostatic medicinal products in surgical patients. J Thromb Haemost 2010; 8:202-4).
Analysis of safety outcomes was performed in the safety population, which included all randomized patients who received at least one dose of study medication; the time for analysis included the on-treatment period plus 2 days. For each bleeding outcome, the rate in each milvexian group was compared with that in the enoxaparin group with the same methods used for evaluation of the secondary efficacy outcomes. The Kaplan-Meier method was used to assess the time to the first occurrence of any bleeding with milvexian or enoxaparin.
The key secondary objective of the study was to assess the dose-response trend of milvexian for the occurrence of Any Bleeding events during the treatment period. Any Bleeding was defined as the composite of major bleeding according to the International Society on Thrombosis and Haemostasis (ISTH) criteria modified for the surgical setting, clinically relevant nonmajor bleeding events or minimal bleeding events as assessed by the clinical events committee (CEC).

aPTT = aPTT prolongation in healthy volunteers; assay type: in vivo, human; settings: 50-mg once daily dose, for about 24 hours
Half-life of milvexian = settings: human, in vivo
[3] = milvexian 50 mg BID, listed as Milvexian
[4] = milvexian 100 mg BID, listed as Milvexian
[5] = milvexian 200 mg once daily, listed as Milvexian
[6] = milvexian all regimens combined
[7] = milvexian combined BID regimens

Compound: C[C@@H]1CCC[C@H](n2cnc(-c3cc(Cl)ccc3-n3cc(Cl)nn3)cc2=O)c2cc(ccn2)-c2c(cnn2C(F)F)NC1=O [milvexian, (5R,9S)-9-(4-(5-chloro-2-(4-chloro-1H-1,2,3-triazol-1-yl)phenyl)-6-oxopyrimidin-1(6H)-yl)-21-(difluoromethyl)-5-methyl-21H-3-aza-1(4,2)-pyridina-2(5,4)-pyrazolacyclononaphan-4-one]
- ex vivo PT (aPTT, TT, and PT; prevention ECAT rabbits): did not alter TT and PT significantly
- ex vivo TT (aPTT, TT, and PT; prevention ECAT rabbits): did not alter TT and PT significantly
- ex vivo aPTT (aPTT, TT, and PT; prevention ECAT rabbits): elevated aPTT significantly at the highest 2 doses
- prolongation of aPTT needed to achieve 50% thrombus weight reduction (aPTT, TT, and PT; rabbit ECAT): 1.6 fold
- carotid blood flow at 90 minutes (% of control carotid blood flow) ([1]; 0.25+0.17 mg/kg+mg/kg/h IV at 15 minutes after initiation of thrombosis): 39±10%
- reduction in thrombus weight ([1]; 0.25+0.17 mg/kg+mg/kg/h IV): 25±7%
- carotid blood flow at 90 minutes (% of control carotid blood flow) ([1]; 1+0.67 mg/kg+mg/kg/h IV at 15 minutes after initiation of thrombosis): 66±2%
- reduction in thrombus weight ([1]; 1+0.67 mg/kg+mg/kg/h IV): 61±6%
- Any Bleeding % ([2]; milvexian 25 mg BID): 1.4%
- Any Bleeding RR vs Enox ([2]; milvexian 25 mg BID): 0.33
- Any Bleeding n ([2]; milvexian 25 mg BID): 2 n
- Major+CRNM bleeding % ([2]; milvexian 25 mg BID): 0%
- Major+CRNM bleeding n ([2]; milvexian 25 mg BID): 0 n
- Minimal Bleeding % ([2]; milvexian 25 mg BID): (1.4%)
- Minimal Bleeding RR vs Enox ([2]; milvexian 25 mg BID): 0.50
- Minimal Bleeding n ([2]; milvexian 25 mg BID): 2 n
- Any Bleeding % ([2]; milvexian 25 mg BID, listed as Milvexian): (1.4%)
- Any Bleeding % ([2]; milvexian 25 mg once daily): 0%
- Any Bleeding n ([2]; milvexian 25 mg once daily): 0 n
- Major+CRNM bleeding n ([2]; milvexian 25 mg once daily): 0 n
- Minimal Bleeding n ([2]; milvexian 25 mg once daily): 0 n
- Any Bleeding % ([2]; milvexian 50 mg BID): 4.7%
- Any Bleeding RR vs Enox ([2]; milvexian 50 mg BID): 1.15
- Any Bleeding n ([2]; milvexian 50 mg BID): 7 n
- Major+CRNM bleeding % ([2]; milvexian 50 mg BID): 1.4%
- Major+CRNM bleeding RR vs Enox ([2]; milvexian 50 mg BID): 0.79
- Major+CRNM bleeding n ([2]; milvexian 50 mg BID): 2 n
- Minimal Bleeding % ([2]; milvexian 50 mg BID): (3.4%)
- Minimal Bleeding RR vs Enox ([2]; milvexian 50 mg BID): 1.23
- Minimal Bleeding n ([2]; milvexian 50 mg BID): 5 n
- Any Bleeding % [2, 3]: (4.7%)
- Major+CRNM bleeding % [2, 3]: (1.4%)
- Any Bleeding % ([2]; milvexian 50 mg once daily): (5.3%)
- Any Bleeding RR vs Enox ([2]; milvexian 50 mg once daily): 1.17
- Any Bleeding n ([2]; milvexian 50 mg once daily): 8 n
- Major+CRNM bleeding % ([2]; milvexian 50 mg once daily): 1.3%
- Major+CRNM bleeding RR vs Enox ([2]; milvexian 50 mg once daily): 0.68
- Major+CRNM bleeding n ([2]; milvexian 50 mg once daily): 2 n
- Minimal Bleeding % ([2]; milvexian 50 mg once daily): (4.0%)
- Minimal Bleeding RR vs Enox ([2]; milvexian 50 mg once daily): 1.35
- Minimal Bleeding n ([2]; milvexian 50 mg once daily): 6 n
- Major+CRNM bleeding % ([2]; milvexian 50 mg once daily, listed as Milvexian): (1.3%)
- Any Bleeding % ([2]; milvexian 100 mg BID): 4.7%
- Any Bleeding RR vs Enox ([2]; milvexian 100 mg BID): 1.14
- Any Bleeding n ([2]; milvexian 100 mg BID): 7 n
- Major+CRNM bleeding % ([2]; milvexian 100 mg BID): 0.7%
- Major+CRNM bleeding RR vs Enox ([2]; milvexian 100 mg BID): 0.39
- Major+CRNM bleeding n ([2]; milvexian 100 mg BID): 1 n
- Minimal Bleeding % ([2]; milvexian 100 mg BID): (4.7%)
- Minimal Bleeding RR vs Enox ([2]; milvexian 100 mg BID): 1.71
- Minimal Bleeding n ([2]; milvexian 100 mg BID): 7 n
- Any Bleeding % [2, 4]: (4.7%)
- Major+CRNM bleeding % [2, 4]: (0.7%)
- Any Bleeding % ([2]; milvexian 200 mg BID): (3.4%)
- Any Bleeding RR vs Enox ([2]; milvexian 200 mg BID): 0.81
- Any Bleeding n ([2]; milvexian 200 mg BID): 5 n
- Major+CRNM bleeding % ([2]; milvexian 200 mg BID): 0.7%
- Major+CRNM bleeding RR vs Enox ([2]; milvexian 200 mg BID): 0.39
- Major+CRNM bleeding n ([2]; milvexian 200 mg BID): 1 n
- Minimal Bleeding % ([2]; milvexian 200 mg BID): (2.7%)
- Minimal Bleeding RR vs Enox ([2]; milvexian 200 mg BID): 0.96
- Minimal Bleeding n ([2]; milvexian 200 mg BID): 4 n
- Major+CRNM bleeding % ([2]; milvexian 200 mg BID, listed as Milvexian): (0.7%)
- Any Bleeding % ([2]; milvexian 200 mg once daily): 6.1%
- Any Bleeding RR vs Enox ([2]; milvexian 200 mg once daily): 1.51
- Any Bleeding n ([2]; milvexian 200 mg once daily): 9 n
- Major+CRNM bleeding % ([2]; milvexian 200 mg once daily): 0.7%
- Major+CRNM bleeding RR vs Enox ([2]; milvexian 200 mg once daily): 0.40
- Major+CRNM bleeding n ([2]; milvexian 200 mg once daily): 1 n
- Minimal Bleeding % ([2]; milvexian 200 mg once daily): (5.4%)
- Minimal Bleeding RR vs Enox ([2]; milvexian 200 mg once daily): 2.01
- Minimal Bleeding n ([2]; milvexian 200 mg once daily): 8 n
- Any Bleeding % [2, 5]: (6.1%)
- Major+CRNM bleeding % [2, 5]: (0.7%)
- Any Bleeding % [2, 6]: 4.1%
- Any Bleeding n [2, 6]: 38 n
- Any bleeding RR (CI) vs enoxaparin [2, 6]: 0.99 (0.53-1.85)
- Clinically relevant non-major Bleeding % [2, 6]: 0.8%
- Clinically relevant non-major Bleeding RR (CI) vs enoxaparin [2, 6]: 0.55 (0.16-1.85)
- Clinically relevant non-major Bleeding n [2, 6]: 7 n
- Major Bleeding n [2, 6]: no major bleeds; also recorded: No CEC adjudicated major bleeding
- Major bleeding or CRNM Bleeding RR (CI) vs enoxaparin [2, 6]: 0.44 (0.14-1.35)
- Major+CRNM bleeding % [2, 6]: 0.8%
- Major+CRNM bleeding n [2, 6]: 7 n
- Minimal Bleeding % [2, 6]: 3.5%
- Minimal Bleeding RR (CI) vs enoxaparin [2, 6]: 1.26 (0.59-2.67)
- Minimal Bleeding n [2, 6]: 32 n
- Major Bleeding n ([2]; milvexian all regimens combined, listed as Milvexian): 0 n
- Any Bleeding % [2, 7]: 3.5%
- Any Bleeding n [2, 7]: 21 n
- Any bleeding RR (CI) vs enoxaparin [2, 7]: 0.86 (0.43-1.71)
- Clinically relevant non-major Bleeding % [2, 7]: 0.7%
- Clinically relevant non-major Bleeding RR (CI) vs enoxaparin [2, 7]: 0.49 (0.12-1.96)
- Clinically relevant non-major Bleeding n [2, 7]: 4 n
- Major Bleeding n [2, 7]: 0 n
- Major bleeding or CRNM Bleeding RR (CI) vs enoxaparin [2, 7]: 0.39 (0.11-1.44)
- Major+CRNM bleeding % [2, 7]: 0.7%
- Major+CRNM bleeding n [2, 7]: 4 n
- Minimal Bleeding % [2, 7]: 3.0%
- Minimal Bleeding RR (CI) vs enoxaparin [2, 7]: 1.10 (0.49-2.49)
- Minimal Bleeding n [2, 7]: 18 n
- prolongation of aPTT (aPTT): 1.5 fold
- half-life (Half-life of milvexian): ~11 h
